Molecular target: Mitogen-activated protein kinase 8 (Homo sapiens, UniProt P45983)
Assay: Inhibition of JNK1

Sequence of Mitogen-activated protein kinase 8 (P45983 whole entry): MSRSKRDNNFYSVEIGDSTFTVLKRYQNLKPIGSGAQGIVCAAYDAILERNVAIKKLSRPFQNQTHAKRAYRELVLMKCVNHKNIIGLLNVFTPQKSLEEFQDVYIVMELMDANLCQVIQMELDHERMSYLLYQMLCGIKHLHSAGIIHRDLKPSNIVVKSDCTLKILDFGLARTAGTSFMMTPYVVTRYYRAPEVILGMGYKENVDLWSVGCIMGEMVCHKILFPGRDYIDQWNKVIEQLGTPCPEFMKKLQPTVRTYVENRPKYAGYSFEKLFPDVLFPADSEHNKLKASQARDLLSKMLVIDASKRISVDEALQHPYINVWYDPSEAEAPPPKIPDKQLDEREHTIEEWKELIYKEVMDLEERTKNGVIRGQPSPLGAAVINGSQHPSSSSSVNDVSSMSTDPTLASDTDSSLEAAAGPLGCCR

SMILES	IC50
CC(C)[C@H](CO)Nc1nc(C(=O)NCc2ccc(S(C)(=O)=O)cc2)cc(N)c1C#N	1500 nM
C[C@@H](CO)Oc1nc(C(=O)NCc2ccc(S(C)(=O)=O)cc2)cc(N)c1C#N	22 nM
C[C@@H](CO)Nc1nc(C(=O)NCc2ccc(S(C)(=O)=O)cc2)cc(N)c1C#N	180 nM
CS(=O)(=O)c1ccc(CNC(=O)c2cc(N)c(C#N)c(OCCC(=O)O)n2)cc1	1640 nM

Reference: ChEMBL document CHEMBL1149794, “3D-QSAR and docking studies of aminopyridine carboxamide inhibitors of c-Jun N-terminal kinase-1” (Eur J Med Chem, 2008)
